In patent US20240148874A1, “IMMUNOADJUVANT-BASED HYDROGEL COMPOSITION AND USE THEREOF” (SOOCHOW UNIVERSITY, priority 2020, published 2024):

Key:
Format in all cases: in vivo
CT26 colon cancer tumor [1] = assay: Immune response evaluation in chemotherapy sensitization, colon cancer subcutaneous tumor mouse model (Example 4); details: day 5 after treatment, CT26 BALB/c mice, compared with control group
Description: The mice were treated on day 7 after the inoculation of CT26 colon cancer tumor. Tumor-bearing BALB/c mice were randomly divided into the following 4 groups (6 mice in each group): Group 1: control group (untreated); Group 2: intratumoral injection of sodium alginate and intravenous injection of oxaliplatin (OxPt); Group 3: intratumoral injection of smart sodium alginate hydrogel preparation (ALG-A-Apt/CpG) capable of ATP-responsive slow release of immunoadjuvant obtained in Step (5) of Example 2; Group 4: intratumoral injection of smart sodium alginate hydrogel preparation capable of ATP-responsive slow release of immunoadjuvant obtained in Step (5) of Example 2 and intravenous injection of oxaliplatin (ALG-A-Apt/CpG@OxPt). The final concentration of sodium alginate in each treatment group was 10 mg/mL, the volume of intratumoral injection was 25 μL, and the dose of CpG-ODN per mouse was 15 μg. On days 7, 10, 13 and 16, oxaliplatin was administered intravenously at a dose of 3 mg/kg body weight. On day 5 after the treatment, mice in each group were sacrificed, and the maturity of dendritic cells in inguinal lymph nodes, percentage of CD8 positive T cells in the tumor, and ratio of CD8 positive T cells to regulatory T cells was identified.

CT26 colon cancer tumor [2] = assay: Chemotherapy sensitization with smart hydrogel in colon cancer subcutaneous tumor mouse model (Example 3); details: CT26 tumor-bearing BALB/c mice, compared with control group; CpG-ODN 15 μg per mouse intratumoral; oxaliplatin 3 mg/kg i.v. days 7, 10, 13, 16
Description: The mice were treated on day 7 after the inoculation of CT26 colon cancer tumor. Tumor-bearing BALB/c mice were randomly divided into the following 6 groups (6 mice in each group): Group 1: control group (untreated); Group 2: intratumoral injection of sodium alginate and intravenous injection of oxaliplatin (ALG+OxPt); Group 3: intratumoral injection of mixture of sodium alginate with CpG-ODN (ALG/CpG); Group 4: intratumoral injection of mixture of sodium alginate and CpG-ODN and intravenous injection of oxaliplatin (ALG/CpG+OxPt); Group 5: intratumoral injection of smart sodium alginate hydrogel preparation (ALG-Aapt/CpG) capable of ATP-responsive slow release of immunoadjuvant obtained in Step (5) of Example 2; Group 6: intratumoral injection of smart sodium alginate hydrogel preparation capable of ATP-responsive slow release of immunoadjuvant obtained in Step (5) of Example 2, and intravenous injection of oxaliplatin (ALG-Aapt/CpG+OxPt). The final concentration of sodium alginate in each treatment group was 10 mg/mL, the volume of intratumoral injection was 25 μL, and the dose of CpG-ODN per mouse was 15 μg. On days 7, 10, 13 and 16, oxaliplatin was administered intravenously at a dose of 3 mg/kg body weight. After respective treatments for the mice, the tumor growth was measured.

CT26 colon cancer tumor [3] = assay: Chemotherapy sensitization in mouse colon cancer subcutaneous tumor model (Example 1); details: CT26 tumor-bearing BALB/c mice, compared with control group; intratumoral 25 μL, CpG-ODN 15 μg per mouse; oxaliplatin 3 mg/kg i.v. days 7, 10, 13, 16
Text: The sodium alginate hydrogel radiotherapy/chemotherapy sensitizing agent encapsulating the immunoadjuvant CpG-ODN was used for chemotherapy sensitization in a mouse colon cancer subcutaneous tumor model. The treatment was started on day 7 after inoculation of the mouse CT26 colon cancer tumor. Tumor-bearing BALB/c mice were randomly divided into the following 4 groups (6 mice in each group): Group 1: control group (untreated); Group 2: intratumoral injection of sodium alginate and intravenous injection of oxaliplatin (ALG+OxPt);
Group 3: intratumoral injection of sodium alginate hydrogel radiotherapy/chemotherapy sensitizing agent encapsulating the immunoadjuvant CpG-ODN (ALG/CpG); Group 4: intratumoral injection of sodium alginate hydrogel radiotherapy/chemotherapy sensitizing agent encapsulating the immunoadjuvant CpG-ODN, and intravenous injection of oxaliplatin (ALG/CpG+OxPt). The final concentration of sodium alginate in each treatment group was 10 mg/mL, the volume of intratumoral injection was 25 μL, and the dose of CpG-ODN per mouse was 15 μg. On days 7, 10, 13 and 16, oxaliplatin was administered intravenously at a dose of 3 mg/kg body weight. After respective treatments for the mice, the tumor growth was measured.

oxaliplatin [ALG+OxPt]
percentage of CD8 positive T cells in the tumor (CT26 colon cancer tumor [1]): not significantly improved
ratio of CD8 positive T cells to regulatory T cells (CT26 colon cancer tumor [1]): not significantly improved
maturity of dendritic cells (DC) in lymph nodes (CT26 colon cancer tumor [1]; inguinal lymph nodes): not significantly improved
tumor growth (CT26 colon cancer tumor [2]): only partially inhibited
tumor growth (CT26 colon cancer tumor [3]): significantly inhibited
